Experimental data: a melting point compilation (Tetko et al.; mined from patent text by program, amines drawn as free bases though some values may be those of a salt)

| Structure (SMILES) | melting point |
| --- | --- |
| CS(=O)(=O)c1ccc(-c2[nH]c3ccc(Cl)cc3c2-c2ccccc2Cl)cc1 | 300 to 302 °C |
| COc1ccc(-c2ccc(OC3SCC(O)C(O)C3O)cn2)cn1 (centres undefined) | 167 °C |
| O=C(Nc1ccccc1)c1cc(Br)ccc1O | 229 to 230 °C |
| Fc1cc2c(-c3cccs3)c(CBr)cnc2c(F)c1F | 98 to 100 °C |
| CC(C)OCCC(=O)C=P(c1ccccc1)(c1ccccc1)c1ccccc1 | 66 to 70 °C |
| CNC(=S)N1CCCC(N2CCC(Nc3nc4ccccc4n3Cc3ccc(F)cc3)CC2)C1 (centres undefined) | 219 °C |
| O=C1c2ccccc2C(=O)N1CC(=O)N1c2ccccc2N(Cc2ccc(NCc3ccccc3)cc2)C(=O)[C@H]2CCC[C@H]21 (relative stereo) | 178 to 182 °C |
| O=C(NN1CCCCC1)c1cn(-c2ccc(Br)cc2)c(-c2ccc(Cl)cc2Cl)n1 | 219 to 221 °C |
| CCCc1nn(C)c2c(=O)[nH]c(Cc3ccccc3NS(=O)(=O)CCCN(C)C)nc12 | 202 to 204 °C |
| O=C(O)CCOCCc1cccc(-c2nc(=O)c3ccccc3s2)n1 | 237 °C |
| CC(C)n1cc(-c2ccc(C=O)cc2)c2c(Cl)ncnc21 | 138 to 140 °C |
| O=Cc1ccc(O)c(OCc2ccccc2)c1Cl | 149 to 150 °C |
| CCCCCCCCC(SCCCCCC)C(=O)Nc1cccc2nnccc12 (centres undefined) | 54 to 56 °C |
| CC(C)(C)n1nc2c(S)ncnc2c1O | > 300 °C |
| CC(C)Sc1ccc(N)c(C#N)c1 | 67 to 68 °C |
| CN1CCN(C)C1=Nc1ccccc1-c1ccccc1 | 90 to 91 °C |
| O=C(O)Cn1c(=O)c(=O)[nH]c2cc(Cl)ccc21 | 318 to 319 °C |
| C=CCOC(=O)CCC(NC(=O)OCC1c2ccccc2-c2ccccc21)C(=O)OCc1ccccc1 (centres undefined) | 66.2 to 67.1 °C |
| C[C@@H](Nc1c(-c2c(F)cc(F)cc2F)c(Cl)nc2ncnn12)C(C)(C)C | 169 to 171 °C |
| CCCNC(=O)c1ccc(CCN2CC=C(c3c[nH]c(-c4ccc(F)cc4)c3-c3ccncc3)CC2)cc1 | 227 to 230 °C |
| O=C(O)CCCCCNC(=O)c1cc2cc3c(cc2c2cc(OCc4ccccc4)ccc12)OCO3 | 198 to 200 °C |
| COc1cc(C2=C(c3c[nH]c4ccccc34)C(=O)NC2=O)cc(OC)c1OC | 227 °C |
| N=C(O)c1cc(C(O)=NCCO)c(C(=O)O)cc1C(=O)O | 279 to 280 °C |
| CN(C)CCNC(=O)N1CCC(S(=O)(=O)c2ccc(Cl)cc2)C1 (centres undefined) | 131 to 132 °C |
| CNC(=O)[C@@H](NC(=O)[C@@H](CC(=O)OCc1ccccc1)n1ccc(-c2ccc(-c3ccc(C#N)cc3)cc2)c1)C(C)(C)C | 120 °C |

| Structure (SMILES) | melting point |
| --- | --- |
| CCCCC(CNc1nc(C)c(OC(=O)OCC)c(C)n1)c1ccccc1 (centres undefined) | 105 to 107 °C |
| Cc1cccc2[nH]c(Nc3ccc(CC(=O)O)cc3)nc12 | 385 to 387 °C |
| CS(=O)(=O)c1c(C#N)nn(-c2c(Cl)cc(C(F)(F)F)cc2Cl)c1-n1cccc1 | 200 to 202 °C |
| OCCCCCCC(O)C(c1ccc(Cl)cc1Cl)n1ccnc1 (centres undefined) | 74 to 76 °C |
| CCNc1cc(Oc2cccc(C(F)(F)F)c2)nc(C(=O)NN=CC(F)(F)C(F)(F)F)c1 | 101 to 102 °C |
| OCc1ccc2oc(-c3ccc(O)cc3)cc2c1 | 248 to 250 °C |
| CC(C)(C)C(=O)C(C(Sc1ccccc1)c1ccc(F)cc1)n1cncn1 (centres undefined) | 175 °C |
| CC(C)[C@H](NC(=O)N(C)Cc1csc(N)n1)C(=O)N[C@@H](Cc1ccccc1)[C@H](O)[C@H](O)[C@H](Cc1ccccc1)NC(=O)OC(C)(C)C | 103 to 107 °C |
| O=C(Nc1ccc(Cl)cc1)c1ccc([N+](=O)[O-])cc1 | 233 to 235 °C |
| CC(=O)OCC1Cc2cccc3c(C4=C(c5cn(C)c6ccccc56)C(=O)OC4=O)cn(c23)C1 (centres undefined) | 198 to 200 °C |
| O=[N+]([O-])c1ccc2ncccc2c1O | 245 °C |
| COc1ccc(C2CC3(C)C(=O)CCC3C3CCC4=CC(=O)CCC4C23)cc1 (centres undefined) | 155 to 156 °C |
| OCc1ccccc1-c1nc(-c2ccc(Cl)cc2)n[nH]1 | 252 to 254 °C |
| Cc1ncccc1CN(CCn1cc(C)c2occc2c1=O)Cc1ccc2c(c1)NC(=O)C(C)(C)C(=O)N2C1CC1 | 191 to 193 °C |
| CC(C)(C)OC(=O)c1nn(-c2ccc(F)cc2F)c2c1C1CCC2C1 (centres undefined) | 97 to 99 °C |
| CC(C)c1cnc(NC(=O)Nc2cccc(N)c2)s1 | 113 to 115 °C |
| Fc1ccc(Oc2cc3cnc(Cl)nc3cn2)c(F)c1 | 210 to 212 °C |
| CC(C(=O)O)N1CCC(C)(CS)C1=O (centres undefined) | 132 to 133 °C |
| CCOC(=O)c1cc(C(=O)O)nc2cc(Cl)cc(Cl)c12 | 152 to 154 °C |
| COC(=O)c1ccc2c(c1)S(=O)(=O)c1ccccc1N=C2Cl | 254 to 256 °C |
| CC(C)(C)OC(=O)N[C@H](Cc1ccc(C(F)(F)F)cc1)[C@@H](O)c1ccc(F)cc1 (racemic) | 158 to 159 °C |
| CCC1(CC)CCNC1=O | 52 to 53 °C |
| O=C1Nc2cccc(-c3cccc(Cl)c3)c2/C1=C/c1ccc[nH]1 | 165 to 167 °C |
| O=C(CC1=C(n2nc(-c3c(-c4ccccc4)nn4ccccc34)ccc2=O)CCCC1)N1CCNCC1 | 208 to 209 °C |
| C#CCC(CC#C)NC(=O)OC(C)(C)C | 64 to 67 °C |

| Structure (SMILES) | melting point |
| --- | --- |
| O=C(O)COc1cc(Cl)ccc1C(=O)NCc1cccc([N+](=O)[O-])c1 | 200 °C |
| CC1(CC(=O)O)OCCc2nc(-c3ccccc3)sc21 (centres undefined) | 143 to 145 °C |
| CCOC(=O)Cc1ccc(-c2cn3ccsc3n2)cc1 | 117 to 119 °C |
| CC12CCC(=O)C(CSc3ccccc3)=C1CCC1C2CCC2(C)C1C=CC2(C)O (centres undefined) | 147 °C |
| CC(C)(C)OC(=O)N1CCC(c2ccc(N3C[C@H](CN=[N+]=[N-])OC3=O)cc2F)CC1 | 109 to 110 °C |
| CCc1nccn1Cc1ccc2c(c1)Cc1c(-c3ccsc3)n[nH]c1-2 | 129 to 132 °C |
| O=C(OCc1ccccc1)On1nnc2ccccc21 | 130 to 131 °C |
| CCCNC(=O)c1ccc(C=O)cc1 | 71 to 74 °C |
| O=C(CCCCN1CCOCC1)c1ccc2c(c1)Cc1cc(C(=O)CCCCN3CCOCC3)ccc1-2 | 134 to 136 °C |
| O=C(O)CCC(CCCCNS(=O)(=O)c1ccc(Cl)cc1)CCCc1cccnc1 (centres undefined) | 116 to 118 °C |
| O=C(CCNC(=O)OCc1ccccc1)NCCSC(=O)OCc1ccccc1 | 121 to 122 °C |
| CCCc1c(SCCCOc2ccc(C#N)cc2)ccc(C(C)=O)c1O | 90 to 92 °C |
| Cc1cc(S(=O)(=O)NCc2ccccc2)c2c(C)ccc(C(C)C)cc1-2 | 124 to 126 °C |
| COc1cc(-n2cccn2)ncn1 | 108 to 109 °C |
| CNC1CCN(c2ncc3ncnc(Nc4ccc(F)c(Cl)c4)c3n2)CC1 | 174 to 176 °C |
| COc1ccc(-c2[nH]nc3c2C(=O)c2c(NC(=O)NNC(=O)c4ccncc4)cccc2-3)cc1 | 248 °C |
| C=CCN(CC=C)Cc1csc(-c2ncn3c2[C@@H]2CCCN2C(=O)c2c(Cl)cccc2-3)n1 | 186 to 187 °C |
| CCCn1c(-c2ccccc2)nc2cc(C#N)c(C#N)cc21 | 183 to 185 °C |
| CCOc1ccc(C(=O)CCC(=O)O)c(OCC)c1 | 139 to 141 °C |
| O=C(Nc1cccc2[nH]ccc12)c1ccccc1OCCCNC1CCCCC1 | 148 °C |
| C[C@H](CO)NN1c2[nH]c(=O)cnc2C=NC1SCc1cccc(C(F)(F)F)c1F (some centres undefined) | 217 to 219 °C |
| COC(=O)c1nn(C)nc1C(=O)O | 125 to 126 °C |
| CCC=NNC=C(C(=O)OCC)C(=O)c1cc(F)c(F)c(F)c1F | 86 °C |
| CC(CF)(CF)C(O)C(Oc1cccc(C(F)(F)F)c1)n1ccnc1 (centres undefined) | 107 to 120 °C |
| CC1CCc2nc(=O)c(C(N)=O)cn21 (centres undefined) | 223 °C |

| Structure (SMILES) | melting point |
| --- | --- |
| Cc1noc(C)c1COc1ccc(-c2cc(O)c(SCCc3ccccc3)c(=O)o2)cc1 | 152 to 154 °C |
| COc1ccc(Br)c(C=O)c1OC(C)=O | 119 to 120 °C |
| CN(Cc1ccc2c(Br)c(OCc3nnn[nH]3)ccc2c1)C(=O)c1cn(C)c2ccccc12 | 227 to 228 °C |
| Cc1ccc(-c2c(C(=O)NCc3cc(C(F)(F)F)cc(C(F)(F)F)c3)oc(=O)c3cnccc23)cc1 | 188 to 189 °C |
| CC(=O)NCCNc1ccc(C2=NNC(=O)CC2C)cc1[N+](=O)[O-] (centres undefined) | 222 °C |
| O=C(O)CCCCc1cccc(-c2nc(=O)c3ccccc3s2)n1 | 162 °C |
| NCC1Cc2cccc3cccc1c23 (centres undefined) | > 250 °C |
| CC1=C(C(O)c2ccc3c(c2)CCN(C(N)=O)C3)C(C)(C)CCC1 (centres undefined) | 88.3 to 89 °C |
| CCOc1cc(C(=O)O)cc(S(N)(=O)=O)c1-c1ccccc1 | 149 to 150 °C |
| Cn1ncnc1COc1nc2c(cc1C1CCC1)nnn2-c1ccccc1F | 120 to 122 °C |
| NS(=O)(=O)c1cccc(-c2cc(-c3nc(-c4ccc(Cl)c(Cl)c4)cc(C(F)(F)F)n3)ccn2)c1 | 247 °C |
| COc1cc(C)nc(NC(=S)NS(=O)(=O)c2ccccc2Cl)n1 | 186 to 188 °C |
| CCc1nnc(NS(=O)(=O)c2ccc(N)cc2)s1 | 190 to 191 °C |
| CN(C)CCCCCCCCCOc1ccc2oc(-c3ccccc3)cc(=O)c2c1 | 52 to 53 °C |
| COC(=O)Oc1sc(-c2ccc(F)cc2)nc(=O)c1-c1c(C)cc(C)cc1C | 129 to 131 °C |
| Fc1ccc(SC(F)(F)C(F)(F)C(F)(F)C(F)(F)C(F)(F)C(F)(F)C(F)(F)C(F)(F)Sc2ccc(F)cc2)cc1 | 60 to 61 °C |
| CN1CCN(Cc2ccc3c(=O)n(CCCCN4CC=C(c5ccccc5)CC4)c(=O)[nH]c3c2)CC1 | 167 to 168 °C |
| N#Cc1cc(Cl)ccc1N1CCN(Cc2cn3cc(Cl)ccc3n2)CC1 | 191 to 192 °C |
| Cc1cccc(C(C#N)N2CCOCC2)c1 (centres undefined) | 59 to 60 °C |
| O=C(O)CCCCCCCCCCCCCCCCCCCN1C(=O)C=CC1=O | 104 to 106 °C |
| C[N+]([O-])=CCC=Cc1ccccc1 | 85 to 86 °C |
| COc1cc(-c2nc3ccccc3n2Cc2ccc(Cl)c(Cl)c2)cc(OC)c1OC | 145 °C |
| CC1(C)Oc2c([N+](=O)[O-])ccc(Cl)c2C1Br (centres undefined) | 103 to 104 °C |
| CC1(C)OC(C=Cc2ccc(F)cc2)=CC1=O | 55 to 57 °C |
